Laboratory results taken from US10195156B2, “Compounds and compositions for intracellular delivery of agents” (ModernaTX, Inc., priority 2015, dated 2019).

Tests used:
[1] = Concentration of RNA in nanoparticle composition (ultraviolet-visible spectroscopy); type: physicochemical; conditions: Table 5, hEPO mRNA
Method: Ultraviolet-visible spectroscopy can be used to determine the concentration of a therapeutic and/or prophylactic agent (e.g., RNA) in nanoparticle compositions. 100 μL of the diluted formulation in 1×PBS is added to 900 μL of a 4:1 (v/v) mixture of methanol and chloroform. After mixing, the absorbance spectrum of the solution is recorded, for example, between 230 nm and 330 nm on a DU 800 spectrophotometer (Beckman Coulter, Beckman Coulter, Inc., Brea, Calif.). The concentration of therapeutic and/or prophylactic agent in the nanoparticle composition can be calculated based on the extinction coefficient of the therapeutic and/or prophylactic agent used in the composition and on the difference between the absorbance at a wavelength of, for example, 260 nm and the baseline value at a wavelength of, for example, 330 nm.

[2] = pKa of nanoparticle compositions; type: physicochemical
[3] = Particle size and polydispersity index of nanoparticle compositions (Zetasizer Nano ZS); type: physicochemical
Procedure, shortened: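 Zetasizer Nano ZS; samples in 1×PBS; read-out: particle size plus polydispersity index.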

[4] = Encapsulation efficiency of RNA (QUANT-IT RIBOGREEN RNA assay); type: physicochemical
Procedure, shortened: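 RiboGreen fluorescence (ex ~480, em ~520 nm) measured after 15 min at 37 °C on samples at ~5 μg/mL in TE, pH 7.5, ± 2% Triton X-100 solution. After blank subtraction, free RNA is given as intact-sample signal divided by disrupted-sample signal.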

IL-6 = assay: Cytokine production induced by sample formulations: IL-6; type: in vivo; conditions: mice, i.v., 0.5 mpk, 6 hours; for IL-6: in pg/mL (unit assumed)
Procedure, shortened: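 Cytokine levels were quantified at 6 hours in mice given the nanoparticle compositions i.v. at 0.5 mpk. MC3 standard formulation and PBS served as comparators.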

Luc expression [5] = assay: ApoE dependence of luciferase expression (ApoE knockout vs. wild-type mice); type: in vivo; conditions: 0.5 mpk, 6 h
Excerpt: FIG. 17 is a pair of graphs showing the ApoE dependence of luciferase (“Luc”) expression following administration of a composition containing Luc mRNA and Compound 4 to mice at a dose 0.5 mpk. The expression following administration of a composition containing Luc mRNA and MC3 is presented for comparison. […] The % change in Luc expression in livers of ApoE knockout vs. wild-type mice (i.e., (WT mean expression-KO mean expression)/WT mean expression]*100%) was 91.9% for Compound 4 and 97.5% for MC3. […] The % change in expression in spleens of ApoE knockout vs. wild-type mice was 4.34% for Compound 4 and 72.2% for MC3. Numbers 1-4 refer to the following: 1: Composition containing Compound 4, administered to ApoE knockout mice; 2: Composition containing Compound 4, administered to wild-type mice; 3: Composition containing MC3, administered to ApoE knockout mice; 4: Composition containing MC3, administered to wild-type mice.

Luc expression [6] = assay: Luc expression in CD-1 mice (AUC relative to MC3); type: in vivo; conditions: Table 7c
Method: FIG. 15 is a graph summarizing luciferase expression levels at 6 h after administration of nanoparticle compositions containing compounds of the disclosure to CD-1 mice at a dose of 0.5 mpk. Total light flux values were acquired via body luminescent imaging (BLI) 6 h after administration. In this Figure, the numbers 1-7 and 10 refer to the compositions containing Compounds 4-10 and MC3 respectively.
In contrast, hEPO expression in rats induced by administration of a nanoparticle composition including a compound according to one of formulae (I), (Ia1)-(Ia6), (Ib), (II), (IIa), (III), and (IIIa) was substantially […] than that measured for MC3. […] Table 7c and 7d show additional protein expressions and clearance data from compositions with various compounds disclosed herein as compared to with MC3.

LDL-c = assay: LDL levels in LDLr−/− mice after mRNA encoding the LDL receptor; type: in vivo, LDLR knockout mice; conditions: Mus musculus; Table 7b; LDLr−/− mice, 0.5 mpk, LDLr; read-out: LDL levels lipid/untreated LDLr−/− mice 0.5 mpk, LDLr
[7] = Table 1, rows without footnote mark
[8] = Table 5, hEPO mRNA, 40:20:38.5:1.5 Lipid:DOPE:Chol:PEG-DMG
[9] = Table 1, rows without footnote mark (lipid:DOPE:cholesterol:PEG-DMG 40:20:38.5:1.5, Luc mRNA; MC3 standard formulation)
[10] = Table 5, hEPO mRNA, 50:10:38.5:1.5 Lipid:DSPC:Chol:PEG-DMG
[11] = Table 20-1, rows without footnote mark

SMILES: CCCCCCCCCCCCN(CCCCCCCCCCCC)CCN(CCCCCCCCCCCC)CCN1CCN(CCN(CCCCCCCCCCCC)CCCCCC(=O)OCCCCC)CC1 [Compound 12, Pentyl 6-((2-(4-(2-((2-(didodecylamino)ethyl)(dodecyl)amino)ethyl)piperazin-1-yl)ethyl)(dodecyl)amino)hexanoate]
- Conc. ([1]; 40:20:38.5:1.5 Lipid:DOPE:Chol:PEG-DMG): 320.14 µg/mL
- pKa [2, 7]: 5.44
- pKa [2, 8]: 5.444
- PDI [3, 7]: 0.096
- Size (nm) [3, 9]: 87.8 nm
- PDI [3, 8]: 0.13
- Size (nm) [3, 8]: 87.5 nm
- EE (%) [4, 7]: 96.9%
- EE (%) [4, 8]: 93.79%
- IL-6 (IL-6; Table 4): 31

SMILES: CCCCCC=CCC=CCCCCCCCCC(CCCCCCCCC=CCC=CCCCCC)OC(=O)CCCN(C)C (centres unmarked) [MC3, heptatriaconta-6,9,28,31-tetraen-19-yl 4-(dimethylamino)butanoate, reference compound]
- % change in Luc expression in livers of ApoE knockout vs. wild-type mice (Luc expression [5]; FIG. 17 Graph A, liver): 97.5%
- % change in expression in spleens of ApoE knockout vs. wild-type mice (Luc expression [5]; FIG. 17 Graph B, spleen): 72.2%
- Conc. ([1]; 50:10:38.5:1.5 Lipid:DSPC:Chol:PEG-DMG): 470.45 µg/mL
- AUC (p/s*h) (Luc expression [6]): 1.42E+11 p/s*h
- PDI [3, 7]: 0.117
- Size (nm) [3, 9]: 86.2 nm
- PDI ([3]; Table 1b): 0.17
- Size (nm) ([3]; Table 1b): 74.7 nm
- PDI [3, 10]: 0.11
- Size (nm) [3, 10]: 76.5 nm
- PDI ([3]; Table 17-1): 0.138
- Size (nm) ([3]; Table 17-1): 83.8 nm
- PDI ([3]; Table 19-1): 0.122
- Size (nm) ([3]; Table 19-1): 83.3 nm
- PDI [3, 11]: 0.117
- Size (nm) [3, 11]: 84.0 nm
- PDI ([3]; Table 21-1): 0.1191
- Size (nm) ([3]; Table 21-1): 91.4 nm
- EE (%) [4, 7]: 97.70%
- EE (%) ([4]; Table 1b): 97.3%
- EE (%) [4, 10]: 97.37%
- EE (%) ([4]; Table 17-1): 98.0%
- EE (%) ([4]; Table 19-1): 97.6%
- EE (%) [4, 11]: 97.4%
- EE (%) ([4]; Table 21-1): 98.1%
- response vs control in vivo at 0.5 mg/kg (LDL-c): 55%
- IL-6 (IL-6; Table 4): 92
- IL-6 (IL-6; Table 17-4): 107
- IL-6 (IL-6; Table 19-4): 65.7
- IL-6 (IL-6; Table 20-4, formula (20-I)): 119.5
- IL-6 induction, rank within the named table (in words) (IL-6): highest IL-6 and IP-10 levels
